# Experiments:
# [1] = Shake flask solubility of potential salts in aqueous medium (pH<2); type: physicochemical; conditions: pH<2, ca. 24 hours shaking, HPLC
# Procedure: The solubility of the potential salts was tested using a shake flask method whereby a slurry of each salt was prepared in deionized water and the pH of the reaction was reduced to below pH 2 by adding a small amount of the counterion used for salt formation. The pH was tested using universal indicator paper.
# (§1) (open vials). TGA was carried out after the stability studies for samples containing sufficient material.
# [2] = 1 week stability of primary screen salts at 40° C./75% RH and 80° C. (open vials, XRPD); type: physicochemical
# Procedure: as §1
compound,measurement,setting,value
"C=CC(=O)Nc1cccc(Nc2nc(Nc3ccc(N4CCN(C(C)=O)CC4)cc3OC)ncc2C(F)(F)F)c1.O=C(O)c1c(O)cc(O)cc1O [2,4,6-Trihydroxybenzoate Form I]",Approximate Solubility,[1],Below LOQ
same,Stability 40° C./75% RH (open conditions),[2],"No form change,"
same,Stability 80° C. (open conditions),[2],"No form change,"

# Source: US10570099B2, “Salts of an epidermal growth factor receptor kinase inhibitor” (Celgene CAR LLC, priority 2012, dated 2020)
